Where two headings read alike, the source gives them in different places.
How the values were obtained:
Test in all cases: Ras-Raf disruption / FRET / MOA assay (BRAF RBD)
Assay type in all cases: biochemical
KRAS G12D = KRAS G12D (Homo sapiens, UniProt P01116+P62937, G12D); details: with Cyclophilin A
From the text: (§1) Disruption of […] Ras-binding Domain (BRAF^RBD) Interaction with K-Ras by Compounds of the Invention (also Called a FRET Assay or an MOA Assay)
(§2) Note—The following protocol describes a procedure for monitoring disruption of K-Ras G12C (GMP-PNP) binding to BRAF^RBD by a compound of the invention. This protocol may also be executed substituting other Ras proteins or nucleotides, such as K-Ras G12D and K-Ras G13D.
(§3) The purpose of this biochemical assay was to measure the ability of test compounds to facilitate ternary complex formation between a nucleotide-loaded K-Ras isoform and Cyclophilin A; the resulting ternary complex disrupts binding to a BRAF^RBD construct, inhibiting K-Ras signaling through a RAF effector. Data is reported as IC50 values.
(§4) In assay buffer containing 25 mM HEPES pH 7.3, 0.002% Tween20, 0.1% BSA, 100 mM NaCl and 5 mM MgCl2, tagless Cyclophilin A, His6-K-Ras-GMPPNP, and GST-BRAF^RBD were combined in a 384-well assay plate at final concentrations of 25 μM, 12.5 nM, and 50 nM, respectively. Compound was present in plate wells as a 10-point 3-fold dilution series starting at a final concentration of 30 μM. After incubation at 25° C. for 3 hours, a mixture of anti-His Eu-W1024 and anti-GST allophycocyanin was then added to assay sample wells at final concentrations of 10 nM and 50 nM, respectively, and the reaction incubated for an additional 1.5 hours. […] Compounds that facilitate disruption of a K-Ras:RAF complex were identified as those eliciting a decrease in the TR-FRET ratio relative to DMSO control wells.

KRAS G12S = KRAS G12S (Homo sapiens, UniProt P01116+P62937, G12S); details: with Cyclophilin A
From the text: as §1, §2, §3, §4

KRAS G12V = KRAS G12V (Homo sapiens, UniProt P01116+P62937, G12V); details: with Cyclophilin A
From the text: as §1, §2, §3, §4

KRAS G13C = KRAS G13C (Homo sapiens, UniProt P01116+P62937, G13C); details: with Cyclophilin A
From the text: as §1, §2, §3, §4

KRAS G13D = KRAS G13D (Homo sapiens, UniProt P01116+P62937, G13D); details: with Cyclophilin A
From the text: as §1, §2, §3, §4

KRAS WT = KRAS WT (Homo sapiens, UniProt P01116+P62937); details: with Cyclophilin A
From the text: as §1, §2, §3, §4

NRAS G12C = NRAS G12C (Homo sapiens, UniProt P01111+P62937, G12C)
From the text: as §1, §2, §3, §4

KRAS G12C = KRAS G12C (Homo sapiens, UniProt P01116+P62937, G12C); details: with Cyclophilin A
From the text: as §1, §2, §3, §4
The purpose of this biochemical assay is to measure the ability of test compounds to facilitate ternary complex formation between a nucleotide-loaded Ras isoform and cyclophilin A; the resulting ternary complex disrupts binding to a BRAF^RBD construct, inhibiting Ras signaling through a RAF effector.
In assay buffer containing 25 mM HEPES pH 7.3, 0.002% Tween20, 0.1% BSA, 100 mM NaCl and 5 mM MgCl2, tagless Cyclophilin A, His6-K-Ras-GMPPNP (or other Ras variant), and GST-BRAF^RBD are combined in a 384-well assay plate at final concentrations of 25 μM, 12.5 nM and 50 nM, respectively. Compound is present in plate wells as a 10-point 3-fold dilution series starting at a final concentration of 30 μM. After incubation at 25° C. for 3 hours, a mixture of Anti-His Eu-W1024 and anti-GST allophycocyanin is then added to assay sample wells at final concentrations of 10 nM and 50 nM, respectively, and the reaction incubated for an additional 1.5 hours. […] Compounds that facilitate disruption of a Ras:RAF complex are identified as those eliciting a decrease in the TR-FRET ratio relative to DMSO control wells.

[1] = Ras-Raf disruption, read-out: KRAS G12D FRET data IC50
[2] = Ras-Raf disruption, read-out: KRAS G12S FRET data IC50
[3] = Ras-Raf disruption, read-out: KRAS G12V FRET data IC50
[4] = Ras-Raf disruption, read-out: KRAS G13C FRET data IC50
[5] = Ras-Raf disruption, read-out: KRAS G13D FRET data IC50
[6] = Ras-Raf disruption, read-out: KRAS WT FRET data IC50
[7] = NRAS G12C, read-out: NRAS G12C FRET data IC50
[8] = Ras-Raf disruption, read-out: KRAS G12C FRET data IC50

Sequence of KRAS G12S (P01116 1-169 isoform P01116-2 G12S limits assumed): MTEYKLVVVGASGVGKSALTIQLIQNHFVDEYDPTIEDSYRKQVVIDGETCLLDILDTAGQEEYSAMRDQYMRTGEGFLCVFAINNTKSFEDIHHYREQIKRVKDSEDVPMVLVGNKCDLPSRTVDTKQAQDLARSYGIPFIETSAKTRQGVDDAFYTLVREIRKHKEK
Sequence of KRAS G12S (P62937 whole entry): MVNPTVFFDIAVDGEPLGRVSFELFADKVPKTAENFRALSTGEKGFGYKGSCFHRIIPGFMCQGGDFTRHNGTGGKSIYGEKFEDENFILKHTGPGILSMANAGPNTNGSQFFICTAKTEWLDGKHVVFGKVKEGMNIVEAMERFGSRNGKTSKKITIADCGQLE
Sequence of KRAS G12V (P01116 1-169 isoform P01116-2 G12V limits assumed): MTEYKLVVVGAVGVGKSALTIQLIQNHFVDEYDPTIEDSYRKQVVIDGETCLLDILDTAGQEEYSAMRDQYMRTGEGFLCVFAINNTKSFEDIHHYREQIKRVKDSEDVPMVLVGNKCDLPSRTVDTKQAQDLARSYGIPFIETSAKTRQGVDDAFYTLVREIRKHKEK
Sequence of KRAS G12V (P62937 whole entry): as the sequence (P62937 whole entry) above
Sequence of NRAS G12C (P01111 whole entry G12C): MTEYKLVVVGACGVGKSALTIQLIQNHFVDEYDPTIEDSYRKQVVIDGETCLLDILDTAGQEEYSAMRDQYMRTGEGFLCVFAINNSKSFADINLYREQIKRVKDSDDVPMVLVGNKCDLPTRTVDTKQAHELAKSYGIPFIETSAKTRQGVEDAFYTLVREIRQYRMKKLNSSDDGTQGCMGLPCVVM
Sequence of NRAS G12C (P62937 whole entry): as the sequence (P62937 whole entry) above
Sequence of KRAS G12D (P01116 1-169 isoform P01116-2 G12D limits assumed): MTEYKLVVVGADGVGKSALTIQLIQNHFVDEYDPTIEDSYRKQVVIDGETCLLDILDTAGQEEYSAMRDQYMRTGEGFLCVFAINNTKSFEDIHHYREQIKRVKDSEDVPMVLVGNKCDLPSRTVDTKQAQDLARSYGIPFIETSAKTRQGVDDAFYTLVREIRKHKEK
Sequence of KRAS G12D (P62937 whole entry, the tested form may be a part): as the sequence (P62937 whole entry) above
Sequence of KRAS G13D (P01116 1-169 isoform P01116-2 G13D limits assumed): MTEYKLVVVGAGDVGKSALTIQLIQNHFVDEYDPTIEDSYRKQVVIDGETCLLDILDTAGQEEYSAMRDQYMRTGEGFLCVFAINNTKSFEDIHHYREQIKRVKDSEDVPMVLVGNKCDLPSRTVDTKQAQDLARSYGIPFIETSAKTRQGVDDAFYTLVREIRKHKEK
Sequence of KRAS G13D (P62937 whole entry): as the sequence (P62937 whole entry) above
Sequence of KRAS WT (P01116 1-169 isoform P01116-2 limits assumed): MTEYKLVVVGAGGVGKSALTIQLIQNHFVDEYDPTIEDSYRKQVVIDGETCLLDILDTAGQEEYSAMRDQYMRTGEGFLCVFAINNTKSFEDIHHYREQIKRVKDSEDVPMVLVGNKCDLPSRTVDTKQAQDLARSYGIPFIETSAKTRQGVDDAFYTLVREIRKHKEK
Sequence of KRAS WT (P62937 whole entry): as the sequence (P62937 whole entry) above
Sequence of KRAS G13C (P01116 1-169 isoform P01116-2 G13C limits assumed): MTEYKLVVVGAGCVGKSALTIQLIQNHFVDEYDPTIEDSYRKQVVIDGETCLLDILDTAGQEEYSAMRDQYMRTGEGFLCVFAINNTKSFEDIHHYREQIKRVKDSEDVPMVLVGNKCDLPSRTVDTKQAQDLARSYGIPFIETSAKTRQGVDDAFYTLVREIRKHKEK
Sequence of KRAS G13C (P62937 whole entry): as the sequence (P62937 whole entry) above
Sequence of KRAS G12C (P01116 1-169 isoform P01116-2 G12C limits assumed): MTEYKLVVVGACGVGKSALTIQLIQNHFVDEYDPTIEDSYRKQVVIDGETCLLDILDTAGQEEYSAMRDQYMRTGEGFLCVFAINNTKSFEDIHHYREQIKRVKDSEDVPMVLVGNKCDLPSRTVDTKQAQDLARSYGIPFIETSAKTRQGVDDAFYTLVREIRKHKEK
Sequence of KRAS G12C (P62937 whole entry): as the sequence (P62937 whole entry) above

| SMILES | IC50 (KRAS G12D; [1]) [nM] | IC50 (KRAS G12S; [2]) [nM] | IC50 (KRAS G12V; [3]) [nM] | IC50 (KRAS G13C; [4]) [nM] | IC50 (KRAS G13D; [5]) [nM] | IC50 (KRAS WT; [6]) [nM] | IC50 (NRAS G12C; [7]) [nM] | IC50 (KRAS G12C; [8]) [nM] | IC50 (KRAS G12D; KRAS G12D FRET data IC50, Ras-Raf disruption) [nM] | IC50 (KRAS G12S; KRAS G12S FRET data IC50, Ras-Raf disruption) [nM] | IC50 (KRAS G12V; KRAS G12V FRET data IC50, Ras-Raf disruption) [nM] | IC50 (KRAS G13C; KRAS G13C FRET data IC50, Ras-Raf disruption) [nM] | IC50 (KRAS G13D; KRAS G13D FRET data IC50, Ras-Raf disruption) [nM] | IC50 (KRAS WT; KRAS WT FRET data IC50, Ras-Raf disruption) [nM] | IC50 (NRAS G12C; NRAS G12C FRET data IC50, NRAS G12C) [nM] | IC50 (KRAS G12C; KRAS G12C FRET data IC50, Ras-Raf disruption) [nM] |
| --- | --- | --- | --- | --- | --- | --- | --- | --- | --- | --- | --- | --- | --- | --- | --- | --- |
| CCn1c(-c2cccnc2[C@H](C)OC)c2c3cc(ccc31)-c1cccc(c1)C[C@H](NC(=O)[C@H](C(C)C)N(C)C(=O)CCN=C=NCCOC)C(=O)N1CCC[C@H](N1)C(=O)OCC(C)(C)C2 [Example 74] | 100 to 1000 | 1000 to 10000 | 1000 to 10000 | 100 to 1000 | 1000 to 10000 | 1000 to 10000 | 10 to 100 | 10 to 100 |  |  |  |  |  |  |  |  |
| CCn1c(-c2cccnc2[C@H](C)OC)c2c3cc(ccc31)-c1cc(O)cc(c1)C[C@H](NC(=O)[C@H](C(C)C)N1CC[C@@H](NC(=O)[C@H]3CN3)C1=O)C(=O)N1CCC[C@H](N1)C(=O)OCC(C)(C)C2 [Example 130] |  |  |  |  |  |  |  |  | 100 to 1000 | 10 to 100 | 100 to 1000 | 10 to 100 | 10 to 100 | 10 to 100 | 10 to 100 | 10 to 100 |
| CCn1c(-c2cccnc2[C@H](C)OC)c2c3cc(ccc31)-c1csc(n1)C[C@H](NC(=O)[C@H](C(C)C)N(C)C(=O)N1CCN(C(=O)[C@H]3CN3)CC1)C(=O)N1CCC[C@H](N1)C(=O)OCC(C)(C)C2 [Example 169] | 100 to 1000 | 10 to 100 | 100 to 1000 | 10 to 100 | 100 to 1000 | 10 to 100 | 10 to 100 | 10 to 100 |  |  |  |  |  |  |  |  |
| CCn1c(-c2cccnc2[C@H](C)OC)c2c3cc(ccc31)-c1cc(O)cc(c1)C[C@H](NC(=O)[C@H](C(C)C)N(C)C(=O)c1ncc(NC(=O)[C@@H]3CN3)n1C)C(=O)N1CCC[C@H](N1)C(=O)OCC(C)(C)C2 [Example 83] | 100 to 1000 | 10 to 100 | 10 to 100 | 10 to 100 | 10 to 100 | 10 to 100 | 10 to 100 | 10 to 100 |  |  |  |  |  |  |  |  |
| CCn1c(-c2cccnc2[C@H](C)OC)c2c3cc(ccc31)-c1cc(O)cc(c1)C[C@H](NC(=O)[C@H](C(C)C)N1CC[C@@]3(CCN(C[C@@H]4CN4)C3)C1=O)C(=O)N1CCC[C@H](N1)C(=O)OCC(C)(C)C2 [Example 138] | 100 to 1000 | 100 to 1000 | 1000 to 10000 | 10 to 100 | 10 to 100 | 10 to 100 | < 10 | 10 to 100 |  |  |  |  |  |  |  |  |
| CCn1c(-c2cccnc2[C@H](C)OC)c2c3cc(ccc31)-c1cccc(c1)C[C@H](NC(=O)[C@H](C(C)C)N(C)C(=O)[C@H]1CC[C@H](N=C=NC34CC(C3)C4)C1)C(=O)N1CCC[C@H](N1)C(=O)OCC(C)(C)C2 [Example 123] | 1000 to 10000 | > 10000 | 1000 to 10000 | 100 to 1000 | > 10000 | 1000 to 10000 | 100 to 1000 | 100 to 1000 |  |  |  |  |  |  |  |  |
| CCn1c(-c2cccnc2[C@H](C)OC)c2c3cc(ccc31)-c1cc(O)cc(c1)C[C@H](NC(=O)[C@H](C(C)C)N(C)C(=O)[C@H]1CCN(C(=O)[C@H]3CN3)C1)C(=O)N1CCC[C@H](N1)C(=O)OCC(C)(C)C2 (single isomer, unassigned) [Example 43B] | 1000 to 10000 | 1000 to 10000 | 1000 to 10000 | 1000 to 10000 | 1000 to 10000 |  | 10 to 100 | 10 to 100 |  |  |  |  |  |  |  |  |
| CCn1c(-c2cccnc2[C@H](C)OC)c2c3cc(ccc31)-c1cc(O)cc(c1)C[C@H](NC(=O)[C@H](C(C)C)N(C)C(=O)N1CCN(C(=O)[C@@H]3CN3)C(=O)C1)C(=O)N1CCC[C@H](N1)C(=O)OCC(C)(C)C2 [Example 197] |  | 10 to 100 | 10 to 100 |  |  | 10 to 100 | 10 to 100 | 10 to 100 |  |  |  |  |  |  |  |  |
| CCn1c(-c2cnccc2COC)c2c3cc(ccc31)-c1cccc(c1)C[C@H](NC(=O)[C@H](C(C)C)N(C)C(=O)CC1(N=C=Nc3ccc(OC)cc3)CC1)C(=O)N1CCC[C@H](N1)C(=O)OCC(C)(C)C2 [65 A and B] | > 10000 | > 10000 | > 10000 |  | > 10000 | > 10000 | > 10000 |  |  |  |  |  |  |  |  |  |
| CCn1c(-c2cnccc2COC)c2c3cc(ccc31)-c1cccc(c1)C[C@H](NC(=O)[C@H](C(C)C)N(C)C(=O)CCN=C=NCCCN1CCOCC1)C(=O)N1CCC[C@H](N1)C(=O)OCC(C)(C)C2 [17 A and B] | 1000 to 10000 | > 10000 | > 10000 | 1000 to 10000 |  | > 10000 |  | 10 to 100 |  |  |  |  |  |  |  |  |
| CCn1c(-c2cccnc2[C@H](C)OC)c2c3cc(ccc31)-c1cc(O)cc(c1)C[C@H](NC(=O)[C@H](C(C)C)N(C)C(=O)C1CC3(C1)CN(C(=O)[C@H]1CN1)C3)C(=O)N1CCC[C@H](N1)C(=O)OCC(C)(C)C2 [Example 181] |  | 100 to 1000 | 100 to 1000 | 10 to 100 | 100 to 1000 | 100 to 1000 | 10 to 100 | 10 to 100 |  |  |  |  |  |  |  |  |
| CCCN=C=NCCC(=O)N(C)[C@H](C(=O)N[C@H]1Cc2cccc(c2)-c2ccc3c(c2)c(c(-c2cnccc2COC)n3CC)CC(C)(C)COC(=O)[C@@H]2CCCN(N2)C1=O)C(C)C [22 A and B] |  | 1000 to 10000 | 1000 to 10000 | 100 to 1000 | > 10000 | 1000 to 10000 | 10 to 100 | 10 to 100 |  |  |  |  |  |  |  |  |
| CCn1c(-c2cnccc2COC)c2c3cc(ccc31)-c1cccc(c1)C[C@H](NC(=O)[C@H](C(C)C)N(C)C(=O)CCN=C=NC1(COC)CC1)C(=O)N1CCC[C@H](N1)C(=O)OCC(C)(C)C2 [72 A and B] |  | > 10000 |  |  |  | > 10000 | 100 to 1000 |  |  |  |  |  |  |  |  |  |

Reference: patent US20230233569A1 (Revolution Medicines, Inc., priority 2020, published 2023)
